Data set [1] deals with recombinant integrase (HIV integrase) (Human immunodeficiency virus type 1 group M subtype B, UniProt P04585). An excerpt: The present invention includes the preparation of naphthyridine carboxamides of Formula (VIII) by the process set forth above in the Summary of the Invention. […] The strand transfer assay is described in Example 193 of WO 02/30930.
A short description of data set [2]: oral absorption and pharmacokinetics in animal models. The data set is classed as in vivo. The settings on record: compared to Compound 15 per se.

Consider `O=C(NCc1ccc(F)cc1)c1nc(N2CCCCS2(=O)=O)c2cccnc2c1O` [Compound 15, 5-(1,1-dioxido-1,2-thiazinan-2-yl)-N-(4-fluorobenzyl)-8-hydroxy-1,6-naphthyridine-7-carboxamide], for which the “HIV integrase inhibition (in words)” value in data set [1] was “potent HIV integrase inhibitor”.

As to `O=C(NCc1ccc(F)cc1)c1nc(N2CCCCS2(=O)=O)c2cccnc2c1[O-].[Na+]` [Na salt of Compound 15, Sodium salt of 5-(1,1-Dioxido-1,2-thiazinan-2-yl)-N-(4-fluorobenzyl)-8-hydroxy-1,6-naphthyridine-7-carboxamide], in data set [2], the oral absorption entry is reported as “superior oral absorption” and the pharmacokinetics entry is listed as “improved pharmacokinetics”.

(Values after patent publication US20050014780A1, “Process for preparing 5-sulfonamido-8-hydroxy-1,6-naphthyridine-7-carboxamides” (priority 2001, published 2005).)
